We go through 11 compounds from article PMC11314410, “Synthesis and Anti-Trypanosoma cruzi Activity of New Pyrazole-Thiadiazole Scaffolds” (Molecules, 2024).

Where two headings read alike, the source gives them in different places.

For data set [1], the system named is Trypomastigotes of T. cruzi (Dm28c-Luc). Description: microbe, parasite or virus in culture. It counts as cell-based, Trypanosoma cruzi. Conditions: for IC50 / IC90: Trypanosoma cruzi, Dm28c-Luc, 24 h treatment; for IC50: 24 h, mean ± SD, read-out: Anti-T. cruzi Activity Trypomastigotes IC50; for IC90: read-out: Anti-T. cruzi Activity Trypomastigotes IC90. The procedure:
(§1) Genetically modified T. cruzi parasites, of clone Dm28c (TcI) expressing the firefly luciferase enzyme gene (Dm28c-Luc), were kindly provided by Dr. Cristina Henriques. T. cruzi Dm28c-Luc was maintained in a Vero cell cultivated in RPMI 1640 medium supplemented with 10% FBS. At 4-day post-infection (dpi), trypomastigotes, released in the cell culture supernatant, were harvested, followed by sedimentation (4000 rpm/20 min/4 °C) and quantification in a Neubauer chamber. Isolated trypomastigotes were used in the phenotypic screening assays as well as the antiparasitic activity in 3D cardiac microtissues, recovery (washout), and drug combination assays.
Drug screening was performed against clinically relevant forms of T. cruzi (amastigotes and trypomastigotes). Trypomastigotes, Dm28c-Luc (1 × 10^6 parasites/well), were added to 96-well plates and incubated with pyrazole-thiadiazole derivatives or Bz (100–0.41 µM). After 24 h of treatment (37 °C), the viability of the parasites was analyzed by adding a D-Luciferin solution (300 µg/mL) and luminescence was measured in the Glomax microplate reader.

The test system of data set [2] is Intracellular amastigotes of T. cruzi (Dm28c-Luc). Briefly: microbe, parasite or virus in culture. Conditions: for IC50 / IC90: Trypanosoma cruzi; for IC90: read-out: Anti-T. cruzi Activity Intracellular Amastigotes IC90. It counts as cell-based, Trypanosoma cruzi. How it is done: as §1
The activity of pyrazole-thiadiazole derivatives against intracellular amastigotes was evaluated in 24 h-T. cruzi infected Vero cell cultures (1.5 × 10^4 cells/well) at a 10:1 ratio. The cultures were washed and incubated with serial dilutions of the derivatives or Bz (100–0.41 µM). Drug treatment was carried out for 72 h at 37 °C and the parasite viability was determined by luminescence readout after D-Luciferin substrate addition (300 µg/mL). The reading was performed in the Glomax reader. The cell cultures incubated with the culture medium containing dimethylsulphoxide (DMSO; concentration ≤ 1%) were used as the […]. The concentrations required to inhibit parasite viability by 50% (IC50) and 90% (IC90) were calculated using Prism GraphPad software (version 8.2.1). The selectivity index (SI), which measures the window between cytotoxicity (CC50) and anti-T. cruzi activity (IC50), was calculated as CC50/IC50. A minimum of 3 independent assays in duplicate were performed.

Data set [3] in a line: Toxicity in mammalian cells (CellTiter Glo, 72 h). It counts as cell-based. To be noted: African green monkey, Vero cells; 72 h, ATP levels; read-out: Cytotoxicity Vero Cells CC50. The procedure:
Vero cell cultures grown in RPMI 1640 medium containing 10% fetal bovine serum (FBS) were cultured at 37 °C in a humidified atmosphere of 5% CO2 [82]. The cultures were used for drug screening assays and to obtain culture-derived trypomastigotes of T. cruzi.
Vero cells (1.5 ×10^4 cells/well), cultivated for 24 h at 37 °C in white 96-well plates with clear bottoms, were used to assess the toxicity of the pyrazole-thiadiazole derivatives (series 1 and 2). After washing, the cells were incubated for 72 h at 37 °C with different drug concentrations (500–1.95 μM). Cell viability was measured by adding 20 μL/well of CellTiter Glo reagent (Promega Corporation, Madison, WI, USA). This cell viability kit generates a luminescent signal proportional to the amount of ATP. The luminescence readout was performed using the Glomax Microplate Reader (Promega Corporation, Madison, WI, USA). Thus, the 50% cytotoxicity concentration (CC50), which reduces the cell viability by 50% (CC50), was calculated with Prism GraphPad software (version 8.2.1).
A general note: ATP-based viability assays read luminescence as a measure of living cells.

Data set [4] relates to T. cruzi (Dm28c-Luc) in Vero cell cultures. Briefly: Washout (recovery) assay in T. cruzi-infected Vero cell cultures. It counts as cell-based, Trypanosoma cruzi. Conditions: washout assay, concentration and day not stated. The procedure: The culture medium of the untreated and treated infected cultures was replaced every 3 or 4 days by a fresh medium with or without the pyrazole-thiadiazole derivatives. The presence of free viable parasites in the culture supernatant was monitored at each medium change by adding luciferin (300 µg/mL) followed by readout on a Glomax microplate reader. At the endpoint, culture supernatants and cell monolayers were evaluated for viable parasites. Positive and negative controls were performed using Bz (150 µM) and DMSO (≤1%), respectively. A minimum of 3 independent experimental runs were performed with 12 replicates.

Another data set concerns Leishmania. Further details: method as in PMID 32492796. To be noted: cited from earlier work.
Where [5] appears, read: Vero, read-out: Intracellular Amastigotes pIC50 (converted).
The mark [6] stands for this setting: Dm28c-Luc in Vero cells, 72 h treatment, mean ± SD, read-out: Anti-T. cruzi Activity Intracellular Amastigotes IC50.
[7] abbreviates: Dm28c-Luc in Vero cells, 72 h treatment, mean ± SD.

For the compound `Nc1nnc(-c2cnn(-c3cccc(Cl)c3)c2N)s1` [2b, 5-Amino-2-(5-amino-1-(3-chlorophenyl)-1H-pyrazol-4-yl)-1,3,4-thiadiazole], the melting point (commonly the temperature, or range, at which the solid turns liquid) is 289 to 291 °C. In data set [1], the “Trypomastigotes SI (CC50 of Vero cells/IC50 of trypomastigotes)” value (from here on “Trypomastigotes SI”) is >5; the IC50 is > 100 µM; the IC90 (in general, the point of the concentration-response curve where the effect stands at 90%) was > 100 µM. For the same compound, in data set [2], the “Intracellular Amastigotes SI (CC50 of Vero cells/IC50 of intracellular amastigotes)” value (shortened to “Intracellular Amastigotes SI”) is given as >7.14. The IC50 in data set [2] (setting [5]) was > 70.8 µM. Moreover, the IC50 in data set [2] (setting [6]) is > 70 µM. Besides, the IC90 in data set [2] (setting [7]) was > 70 µM. Besides, the CC50 (usually the concentration giving 50% cytotoxicity) at 72 h in data set [3] was > 500 µM.
On to `Nc1nnc(-c2cnn(-c3ccc(Cl)cc3Cl)c2N)s1` [2c, 5-Amino-2-(5-amino-1-(2,4-dichlorophenyl)-1H-pyrazol-4-yl)-1,3,4-thiadiazole], for which the melting point fell in the range of 165 to 167 °C. In data set [1], the “Trypomastigotes SI” value was >5, the IC50 was > 100 µM and the IC90 was > 100 µM. In addition, the “Intracellular Amastigotes SI” value in data set [2] was >7.14. In addition, in data set [2] (setting [5]), the IC50 was > 70.8 µM. Also, the IC50 in data set [2] (setting [6]) was > 70 µM. Further, the IC90 in data set [2] (setting [7]) is > 70 µM. In addition, the CC50 at 72 h in data set [3] was > 500 µM. Further, the “Reduction of the release of trypomastigotes” value in data set [4] is ≥ 82%.
Turning to `Nc1nnc(-c2cnn(-c3cc(Cl)cc(Cl)c3)c2N)s1` [2d, 5-Amino-2-(5-amino-1-(3,5-dichlorophenyl)-1H-pyrazol-4-yl)-1,3,4-thiadiazole], the melting point is 299 to 300 °C. Moreover, in data set [1], the “Trypomastigotes SI” value is reported as >5, the IC50 is > 100 µM and the IC90 was > 100 µM. For the same compound, the “Intracellular Amastigotes SI” value in data set [2] is listed as >7.14. Moreover, in data set [2] (setting [5]), the IC50 is > 70.8 µM. The IC50 in data set [2] (setting [6]) was > 70 µM. Besides, the IC90 in data set [2] (setting [7]) was > 70 µM. Further, the CC50 at 72 h in data set [3] is > 500 µM.
Take `Nc1nnc(-c2cnn(-c3ccc(Cl)c(Cl)c3)c2N)s1` [2e, 5-Amino-2-(5-amino-1-(3,4-dichlorophenyl)-1H-pyrazol-4-yl)-1,3,4-thiadiazole]: the melting point was 258 to 260 °C. For the same compound, in data set [1], the “Trypomastigotes SI” value is on record as >6.88, the IC50 was found to be 72.6 ± 6.76 µM and the IC90 is > 100 µM. Also, the “Intracellular Amastigotes SI” value in data set [2] is on record as >13.73. Also, the IC50 in data set [2] (setting [5]) was 33.9 µM. In addition, the IC50 in data set [2] (setting [6]) turned out to be 33.6 ± 2.16 µM. For the same compound, in data set [2] (setting [7]), the IC90 is 58.8 ± 8.26 µM. In data set [3], the CC50 at 72 h was > 500 µM.
Compound `Nc1nnc(-c2cnn(-c3ccc(Cl)cc3)c2N)s1` [2f, 5-Amino-2-(5-amino-1-(4-chlorophenyl)-1H-pyrazol-4-yl)-1,3,4-thiadiazole] displayed a melting point of 238 to 240 °C. Besides, in data set [1], the “Trypomastigotes SI” value is given as >5, the IC50 is > 100 µM and the IC90 was > 100 µM. For the same compound, the “Intracellular Amastigotes SI” value in data set [2] was >7.14. The IC50 in data set [2] (setting [5]) is > 70.8 µM. For the same compound, the IC50 in data set [2] (setting [6]) was > 70 µM. Moreover, the IC90 in data set [2] (setting [7]) was > 70 µM. Besides, in data set [3], the CC50 at 72 h is > 500 µM.
`Nc1nnc(-c2cnn(-c3ccc(F)cc3)c2N)s1` [2g, 5-Amino-2-(5-amino-1-(4-fluorophenyl)-1H-pyrazol-4-yl)-1,3,4-thiadiazole] yielded a melting point of 251 to 253 °C. In addition, in data set [1], the “Trypomastigotes SI” value is recorded as >5, the IC50 was > 100 µM and the IC90 was > 100 µM. Besides, in data set [2], the “Intracellular Amastigotes SI” value is reported as >7.14. Further, the IC50 in data set [2] (setting [5]) was > 70.8 µM. Besides, the IC50 in data set [2] (setting [6]) is > 70 µM. Also, the IC90 in data set [2] (setting [7]) was > 70 µM. Besides, in data set [3], the CC50 at 72 h is > 500 µM.
In turn, `Nc1nnc(-c2cnn(-c3cccc(F)c3)c2N)s1` [2h, 5-Amino-2-(5-amino-1-(3-fluorophenyl)-1H-pyrazol-4-yl)-1,3,4-thiadiazole] came in with a melting point of 285 to 286 °C. In addition, in data set [1], the “Trypomastigotes SI” value was >5, the IC50 was > 100 µM and the IC90 was > 100 µM. Further, in data set [2], the “Intracellular Amastigotes SI” value was >7.14. The IC50 in data set [2] (setting [5]) is > 70.8 µM. In addition, in data set [2] (setting [6]), the IC50 was > 70 µM. In addition, the IC90 in data set [2] (setting [7]) was > 70 µM. The CC50 at 72 h in data set [3] is > 500 µM.
Take `Nc1nnc(-c2cnn(-c3ccc(Br)cc3)c2N)s1` [2i, 5-Amino-2-(5-amino-1-(4-bromophenyl)-1H-pyrazol-4-yl)-1,3,4-thiadiazole]: the melting point was 286 to 287 °C. Besides, in data set [1], the “Trypomastigotes SI” value is >5, the IC50 is > 100 µM and the IC90 is > 100 µM. In data set [2], the “Intracellular Amastigotes SI” value is >7.58. The IC50 in data set [2] (setting [5]) was 69.2 µM. In data set [2] (setting [6]), the IC50 amounted to 68.73 ± 0.05 µM. Moreover, the IC90 in data set [2] (setting [7]) is > 70 µM. Also, in data set [3], the CC50 at 72 h is > 500 µM.
Turning to `Nc1nnc(-c2cnn(-c3cccc(Br)c3)c2N)s1` [2j, 5-Amino-2-(5-amino-1-(3-bromophenyl)-1H-pyrazol-4-yl)-1,3,4-thiadiazole], the melting point lay in the range of 245 to 246 °C. For the same compound, in data set [1], the “Trypomastigotes SI” value is >5, the IC50 was > 100 µM and the IC90 is > 100 µM. Also, the “Intracellular Amastigotes SI” value in data set [2] is listed as >7.14. Besides, the IC50 in data set [2] (setting [5]) was > 70.8 µM. Further, the IC50 in data set [2] (setting [6]) is > 70 µM. Further, the IC90 in data set [2] (setting [7]) was > 70 µM. Further, in data set [3], the CC50 at 72 h is > 500 µM.
As to `COc1ccc(-n2ncc(-c3nnc(N)s3)c2N)cc1` [2l, 5-Amino-2-(5-amino-1-(4-methoxyphenyl)-1H-pyrazol-4-yl)-1,3,4-thiadiazole], the melting point fell in the range of 303 to 305 °C. Moreover, in data set [1], the “Trypomastigotes SI” value is reported as >100, the IC50 is > 100 µM and the IC90 was > 100 µM. Besides, in data set [2], the “Intracellular Amastigotes SI” value is listed as >7.14. The IC50 in data set [2] (setting [5]) was > 70.8 µM. For the same compound, the IC50 in data set [2] (setting [6]) was > 70 µM. The IC90 in data set [2] (setting [7]) was > 70 µM. Besides, the CC50 at 72 h in data set [3] is > 500 µM.
As to `C[C@@H]1[C@H](O)[C@@H](C)/C=C/C=C/C=C/C=C/C=C/C=C/C=C/[C@H](O[C@@H]2O[C@H](C)[C@@H](O)[C@H](N)[C@@H]2O)C[C@@H]2O[C@](O)(C[C@@H](O)C[C@@H](O)[C@H](O)CC[C@@H](O)C[C@@H](O)CC(=O)O[C@H]1C)C[C@H](O)[C@H]2C(=O)O` [amphotericin B], the EC50 (usually the concentration that produces a half-maximal response) with Leishmania (2D model) is 0.0349 µM; in the data set with Leishmania (3D macrophage cultures), 0.0523 µM. The “Increase in the EC50 value of 3D vs 2D macrophage cultures” value in the data set on Leishmania was 33%.
